Earlier results in patent US7094805B2, “Total synthesis of merrilactone A” (The Trustees of Columbia University in the City of New York, priority 2001, dated 2006).

Tested on: fetal rat cortical neurons

Q: With C[C@@]12COC(=O)[C@]1(C)[C@@H]1O[C@]3(C)[C@@H](O)C[C@]24OC(=O)C[C@]143 (racemic) [compound 1, merrilactone A] as the molecule, how does the “promotion of neurite outgrowth” value (general statement) read?
A: The value was “promote neurite outgrowth”.

Q: And the “concentrations at which neurite outgrowth is greatly promoted” value (preliminary studies, natural merrilactone A, "at concentrations as low as")?
A: Its value is 0.1 to 10 µmol.
